The record followed here is patent publication US20090182133A1 (priority 2005, published 2009).

For data set [1], the target named is HCV 3CL proteinase (Human coronavirus 229E, UniProt P0C6X1). Nature of the data set: biochemical. The data set is classed as binding, common cold virus (HCoV-229E antigenic type).
Data set [2] concerns the target T1, SARS 3CL proteinase (Severe acute respiratory syndrome coronavirus, UniProt P0C6X7). Nature of the data set: biochemical. On the set-up: species or system SARS-CoV.
The target of data set [3] is T1, SARS 3CL proteinase. Nature of the data set: biochemical. The class given is binding, SARS-CoV.

Broadly, the pKd is the negative decadic logarithm of the Kd, by convention in mol/L. What is called pIC50 is −log10 of the IC50, conventionally taken in molar units. What is called melting point is the temperature, or range, at which the solid turns liquid.

Structures are written as SMILES. pIC50, pKd: −log10 of the molar value. “Also recorded” adds a separate entry of the source. Like-named read-outs stand apart in the source and are kept apart here.

Chain of HCV 3CL proteinase (P0C6X1 2966-3267 limits assumed): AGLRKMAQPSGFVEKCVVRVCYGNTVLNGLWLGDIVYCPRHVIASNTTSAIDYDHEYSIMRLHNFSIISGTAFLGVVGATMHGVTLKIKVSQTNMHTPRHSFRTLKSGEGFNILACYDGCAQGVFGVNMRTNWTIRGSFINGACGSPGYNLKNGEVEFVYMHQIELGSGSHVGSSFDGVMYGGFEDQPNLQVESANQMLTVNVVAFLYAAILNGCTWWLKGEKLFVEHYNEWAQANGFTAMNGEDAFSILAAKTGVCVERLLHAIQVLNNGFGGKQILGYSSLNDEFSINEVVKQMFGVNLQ

In the case of `O=c1c(O[C@@H]2O[C@H](CO)[C@@H](O)[C@H](O)[C@H]2O)c(-c2ccc(O)c(O)c2)oc2cc(O)cc(O)c12` [IA-1, Quercetin-3-O-β-D-glucopyranoside], in data set [1], the pKd was 4.54 and the “affinity with HCV 3CL proteinases (in words)” value was “weaker affinity”.
In data set [2], `O=c1c(O[C@@H]2OC[C@@H](O)[C@@H](O)[C@@H]2O)c(-c2ccc(O)c(O)c2)oc2cc(O)cc(O)c12` [IA-3, Quercetin-3-O-β-D-arabinopyranoside] had a pIC50 of 4.50. Moreover, in data set [1], the negative-log Kd (pKd) is 5.42 and the “affinity with HCV 3CL proteinases (in words)” value is “high affinity”. Further, in data set [3], the pKd is 4.88 and the “coupling/affinity with SARS 3CL (in words)” value (from here on “coupling/affinity”) is listed as “couple strongly”.
Taken in the same sequence, the figures for `C[C@H]1O[C@@H](Oc2c(-c3ccc(O)c(O)c3)oc3cc(O)cc(O)c3c2=O)[C@H](O)[C@@H](O)[C@H]1O` [IA-4, Quercetin-3-O-β-D-fucopyranoside] were 4.62, 5.24, “high affinity”, 3.98 and “couple strongly; also recorded: weaker affinity”.
Turning to `O=c1c(OC2CCCCC2)c(-c2ccc(O)c(O)c2)oc2cc(O)ccc12` [IB-1, 3-O-cyclohexyl-3′,4′,7-trihydroxy-flavonol], the melting point lay in the range of 98 to 100 °C. The same compound had a pIC50 in data set [2] of 4.48. Besides, in data set [1], the pKd was 5.45 and the “affinity with HCV 3CL proteinases (in words)” value is “high affinity”. Moreover, in data set [3], the negative-log Kd (pKd) was 4.47 and the “coupling/affinity” value was “couple strongly”.
Regarding `O=c1c(OC2CCCCCC2)c(-c2ccc(O)c(O)c2)oc2cc(O)ccc12` [IB-3, 3-O-cycloheptyl-3′,4′,7-trihydroxy-flavonol], the melting point was in the range of 68 to 71 °C. In data set [1], the pKd was 5.82 and the “affinity with HCV 3CL proteinases (in words)” value is on record as “high affinity”. Also, in data set [3], the pKd is 4.47 and the “coupling/affinity” value was “couple strongly”.
As to `O=c1c(OCC2COc3ccccc3O2)c(-c2cc(O)cc(O)c2)oc2cc(O)ccc12` (stereo not drawn) [IB-4, 3-(2,3-dihydro-benzo[1,4]dioxan-2-yl-methoxy)-3′,5′,7-trihydroxy-flavonol], in data set [1], the “affinity with HCV 3CL proteinases (in words)” value was “high affinity”. In addition, the pKd in data set [1] (read-out: KD HCV 3CL) was 5.59; in data set [3] (read-out: KD SARS 3CL) it was 4.77. Further, the “coupling/affinity” value in data set [3] is recorded as “couple strongly”.
